Test results reported in patent publication US20030129168A1, “Expression of proteins for treating asthma via ligand mediated activation of their encoding genes” (ARIAD Gene Therapeutics, Inc., priority 1996, published 2003).
Like-named read-outs stand apart in the source and are kept apart here.

What was measured:
[1] = test system: myristoylated chimeric CD3/FKBP12 (MZF3E) receptor; experiment: FK1012 activation of myristoylated chimeric CD3/FKBP12 (MZF3E) receptor, NFAT SEAP reporter in Jurkat T cells; format: cell-based, human
Description: In an illustrative case, this was accomplished by creating an intracellular receptor comprised of a small fragment of Src sufficient for posttranslational myristoylation (M), the cytoplasmic tail of zeta (Z; a component of the […] was also used), three consecutive FKBP12s (F3) and a flu epitope tag (E). […] The promoter of the SEAP reporter gene was constructed to be transcriptionally activated by nuclear factor of activated T cells (NFAT), which is assembled in the nucleus following TCR-signaling.
Specifically, 5 μg of the eukaryotic expression vector, pBJ5, containing a myristoylated chimeric receptor was co-transfected with 4 μg NFAT-SX. MZE, MZF1E, MZF2E and MZF3E contain 0, 1, 2, or 3 copies of FKBP12, respectively, downstream of a myristoylated CD3 cytoplasmic domain (see FIG. 2 of PCT/US94/01617). As a control, 5 μg of pBJ5 was used in a parallel transfection. After 24 hours, aliquots of each transfection containing approximately 10^5 cells were incubated with log dilutions of the drug, FK1012B, as indicated. As a positive control and to control for transfection efficiency, ionomycin (1 μm) and PMA (25 ng/ml) were added to aliquots from each transfection. After an additional 12 hour incubation, the supernatants were assayed for alkaline phosphatase activity and these activities were expressed relative to that of the positive control samples. […] Compare FIGS. 7 and 8 of PCT/US94/01617.

cells [2] = experiment: Toxicity in cell culture; format: cell-based
FKBP12 [3] = target: T1, FKBP12 (Homo sapiens, UniProt P62942); experiment: FK1012 binding affinity and stoichiometry; conditions: linker positioned in the calcineurin binding domain of FK506
[4] = Immunosuppressive activity
[5] = test system: Jurkat cells stably transfected with MZF3E; experiment: Protein-tyrosine phosphorylation in whole cell lysates (alpha-phosphotyrosine antibodies); format: cell-based, human; conditions: whole cell lysates at varying times after stimulation
Description: The intracellular domains of the TCR, CD3 and zeta-chains interact with cytoplasmic protein tyrosine kinases following antigen stimulation. Specific members of the Src family (lck and/or fyn) phosphorylate one or more tyrosine residues of activation motifs within these intracellular domains (tyrosine activation motif, TAM). The tyrosine kinase ZAP-70 is recruited (via its two SH2 domains) to the tyrosine phosphorylated T-cell-receptor, activated, and is likely to be involved in the further downstream activation of phospholipase C. […] Tyrosine phosphorylation after treatment of cells with either anti-CD3 MAb or FK1012 was detected using monoclonal alpha-phosphotyrosine antibodies. Whole cell lysates were analysed at varying times after stimulation. […] The pattern consisted of a major band of 70 kDa, probably ZAP-70, and minor bands of 120 kDa, 62 kDa, 55 kDa and 42 kDa.

[6] = test system: ZFHD1-FKBPx3 and FKBPx3-VP16 or FKBPx3-p65; experiment: Dimerizer-dependent transcriptional activation (SEAP) in transiently transfected 293 cells; format: cell-based
Experimental: 293 cells were grown in D-MEM (Gibco BRL) supplemented with 10% Bovine Calf Serum. Cells in 35 mm dishes (2.5×10^5 cells/dish) were transiently transfected with use of calcium phosphate precipitation (Ausubel et. al., 1994). Each dish received 375 ng pZHWTx8SVSEAP; 12ng pCGNNZFHD1-FKBPx3 and 25ng pCGNNFKBPx3-VP16 or pCGNNFKBPx3-p65. Following transfection, 2 ml fresh media was added and supplemented with FK1012 to the desired concentration. After a 24 hour incubation […] aliquot of media was removed and assayed for SEAP activity as described (Spencer et. al., 1993).
An analgous experiment was conducted using a wholly synthetic dimerizer, AP1510, in place of FK1012. Like FK1012, AP1510 is a divalent FKBP-binder and is capable of dimerizing chimeric proteins which contain FKBP domains. In this experiment, 293 cells were grown in DMEM supplemented with 10% Bovine Calf Serum. Cells in 10 cm dishes were transiently transfected by calcium phosphate precipitation (Natesan and Gilman, 1995, Mol. Cell Biol, 15, 5975-5982). Each plate received 1 μg of pZHWTx8SVSEAP reporter, 50 ng pCGNNZFHD1-FKBP3×3, 50 ng pCGNNF3p65 or pCGNNF3VP16. Following transfection, 2 ml fresh media was added and supplemented with AP1510 to the desired concentration. After 24 hrs, 100 μl of the media was assayed for SEAP activity as described (Spencer et al, 1993).

[7] = test system: FKBP12-containing fusion proteins; experiment: Gene regulation applications of dimerizer (SEAP or hGH reporter systems); format: cell-based; conditions: for transcription activation with stably integrated constructs: cells in which the transcription factor and reporter gene constructs are all stably integrated
Experimental: After overnight incubation (or longer), assay for target gene expression.
Secreted alkaline phosphatase activity can be easily measured from the supernatant of appropriately transfected cells using fluorescence-(see (10)), or chemiluminescence-(Tropix, Bedford, Mass.) based assays. Samples to be tested should first be incubated at 65° C. for 1 hour to inactivate endogenous alkaline phosphatase activity.

FKBP12 [8] = target: T1, FKBP12; conditions: 2:1 stoichiometry, cited from earlier work
[9] = test system: calcineurin-mediated TCR signaling; conditions: cited from earlier work
cells [10] = conditions: in cell culture; cited from earlier work
[11] = in vivo
[12] = test system: ZFHD1-FKBPx3 and FRAP-p65; experiment: Rapamycin-dependent hGH expression in transfected HT1080 cells in culture; format: cell-based; conditions: HT1080 cells in cell culture
Experimental: (§1) Using the approach described in Example 7, constructs were prepared encoding the ZFHD1-FKBPx3 fusion protein, a second fusion protein containing the FKBP:rapaymcin binding (“FRB”) region of FRAP linked to the p6^5 activation domain, and a reporter cassette containing a gene encoding human growth hormone linked to multiple ZFHD1 binding sites. The natural product, rapamycin, forms a ternary complex with FKBP12 and FRAP. Similarly, rapamycin is capable of binding to one or more of the FKBP domains and FRAP FRB domains of the fusion proteins.

[13] = test system: ZFHD1-FKBPx3 and FRAP-p65; experiment: Rapamycin-dependent hGH expression in nu/nu mice implanted with transfected cells; format: in vivo; conditions: rapamycin i.v. 10-10,000 μg/kg, serum 17 hours after administration
Experimental: as §1
2×10^6 cells from the transfected […] culture were administered to nu/nu mice by intramuscular injection. Following cell implantation, rapamycin was administered i.v. over a range of doses (from 10-10,000 μg/kg). Serum samples were collected from the mice 17 hours after rapamycin administration. Control groups consisted of mice that received no cells but 1.0 mg/kg rapamycin (i.v.) as well as mice that received the cells but no rapamycin.

[14] = Solubility of AP1510 in culture medium; format: physicochemical; conditions: aqueous buffer, kinetic from ethanol stock; serial dilution in (aqueous) culture medium; read-out: highest concentration ensuring complete solubility
Experimental: In the latter case it is recommended that the highest concentration not exceed 5 uM, to ensure complete solubility in the (aqueous) medium. […]

MZF3Eflu and MZF3Eflag = experiment: Coimmunoprecipitation of epitope-tagged chimeras in Jurkat T cells (in vivo FK1012-induced protein dimerization); format: cell-based, human
Experimental: The following experiments confirmed that intracellular aggregation of the MZF3E receptor is indeed induced by the FK1012. The influenza haemagglutinin epitope-tag (flu) of the MZF3E-construct was exchanged with a different epitope-tag (flag-M2). The closely related chimeras, MZF3Eflu and MZF3Eflag, were coexpressed in Jurkat T cells. Immunoprecipitation experiments using anti-Flag-antibodies coupled to agarose beads were performed after the cells were treated with FK1012A. […] In absence of FK1012A, no coimmunoprecipitation of MZF3Eflu is observed. […] This reflects the requirement for aggregation observed with both the endogenous T cell receptor and our artificial receptor MZF3E.

zeta-chain = experiment: In vitro kinase assay after immunoprecipitation, Jurkat cells stably transfected with MZF3E; format: cell-based, human

T1 sequence (P62942 whole entry, the tested form may be a part): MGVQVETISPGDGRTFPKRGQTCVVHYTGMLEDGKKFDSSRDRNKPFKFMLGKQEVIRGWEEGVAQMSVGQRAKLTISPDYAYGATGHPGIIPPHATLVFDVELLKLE

For CO[C@H]1C[C@@H](C)C/C(C)=C/[C@@H](CCOC(=O)NCc2ccccc2)C(=O)C[C@H](O)[C@@H](C)[C@@H](/C(C)=C/[C@@H]2CC[C@@H](O)[C@H](OC)C2)OC(=O)[C@@H]2CCCCN2C(=O)C(=O)[C@]2(O)O[C@H]1[C@@H](OC)C[C@H]2C [FK506-M], the “termination of FK1012-induced signaling” value [1] was “can be terminated by a deaggregation process” and the toxicity to cells (cells [2]) was “nontoxic”.

In the case of FK1012, the EC50 ([1]; MZF3E in human (Jurkat) T cells, NFAT-driven SEAP reporter, read-out: EC50, secretion of alkaline phosphatase (SEAP)) is reported as 50 nM, the FKBP12 binding (FKBP12 [3]) is reported as “leaving FKBP12 binding unaffected” and the immunosuppressive activity [4] is reported as “abolishes immunosuppressive activity”. The “pattern of tyrosine-phosphorylated proteins” value [5] was “A similar pattern of tyrosine-phosphorylated proteins was observed”, the “concentration of peak transcriptional activation” value ([6]; 24 hour incubation) was 100 nM and the “transcription activation with stably integrated constructs” value [7] was “poor”. For the same compound, the Kd (FKBP12 [8]; first binding event, read-out: Kd(1)) was 0.1 nM, the Kd (FKBP12 [8]; second binding event, read-out: Kd(2)) was 0.8 nM and the “inhibition of calcineurin-mediated TCR signaling / signalling pathways” value [9] was “not inhibit calcineurin-mediated TCR signaling”. The “toxic (not toxic up to)” value (cells [10]) was over 0.1 mM.

With hGH: human growth hormone the hGH clearance half-life [11] was “less than 2 minutes” and the “time to undetectable hGH levels” value [11] was at most 30 min.

With CO[C@H]1C[C@@H]2CC[C@@H](C)[C@@](O)(O2)C(=O)C(=O)N2CCCC[C@H]2C(=O)O[C@H]([C@H](C)C[C@@H]2CC[C@@H](O)[C@H](OC)C2)CC(=O)[C@H](C)/C=C(\C)[C@@H](O)[C@@H](OC)C(=O)[C@H](C)C[C@H](C)/C=C/C=C/C=C/1C [rapamycin] the “rapamycin-dependent expression of the hGH gene” value [12] was “support rapamycin-dependent expression of the hGH gene in cell culture” and the “expression of hGH (circulating hGH)” value [13] was “Dose-responsive expression of hGH was observed”.

With CCC(C)(C)C(=O)C(=O)N1CCCC[C@H]1C(=O)O[C@H](CCc1ccc(OC)c(OC)c1)c1cccc(OCC(=O)NCCNC(=O)COc2cccc([C@@H](CCc3ccc(OC)c(OC)c3)OC(=O)[C@@H]3CCCCN3C(=O)C(=O)C(C)(C)CC)c2)c1 [AP1510] the immunosuppressive activity [4] was “no immunosuppressive activity”, the toxicity to cells (cells [2]) was “non-toxic to cells” and the dimerizer-dependent transcriptional activation ([6]; 24 hrs) was “supports synthetic dimerizer-dependent transcriptional activation”. The “transcription activation with stably integrated constructs” value [7] was “activates transcription efficiently”, the “concentration at which expression becomes detectable” value ([7]; gene regulation applications) was “approximately 10 nM” and the “concentration at which expression peaks” value ([7]; gene regulation applications) was “approximately 100 nM”. For the same compound, the “transcription activation compared with FK1012” value ([7]; gene regulation applications) was “activates transcription at lower concentrations and to a higher level than PK1012” and the solubility [14] was at most 5 µM.

With CO[C@H]1C[C@@H](C)C/C(C)=C/[C@@H](CCOC(=O)NCc2ccc(CNC(=O)OCC[C@@H]3/C=C(\C)C[C@H](C)C[C@H](OC)[C@H]4O[C@@](O)(C(=O)C(=O)N5CCCC[C@H]5C(=O)O[C@H](/C(C)=C/[C@@H]5CC[C@@H](O)[C@H](OC)C5)[C@H](C)[C@@H](O)CC3=O)[C@H](C)C[C@@H]4OC)cc2)C(=O)C[C@H](O)[C@@H](C)[C@@H](/C(C)=C/[C@@H]2CC[C@@H](O)[C@H](OC)C2)OC(=O)[C@@H]2CCCCN2C(=O)C(=O)[C@]2(O)O[C@H]1[C@@H](OC)C[C@H]2C [FK1012] the “dimerization of FKBP monomer constructs MZF1Eflu and MZF1Eflag” value (MZF3Eflu and MZF3Eflag) was “also dimerized by FK1012A”, the “coimmunoprecipitation of MZF3Eflu with MZF3Eflag” value (MZF3Eflu and MZF3Eflag; FK1012A 1 μM, anti-Flag agarose beads) was “is coimmunoprecipitated with MZF^3Eflag” and the “recruitment of kinase activity to the zeta-chain” value (zeta-chain) was “resulted in the recruitment of kinase activity to the zeta-chain”.
